According to patent US9845330B2, “6-nitro-2,3-dihydroimidazo[2,1-b]oxazoles and a process for the preparation thereof” (priority 2013, dated 2017):
≈ marks a conversion by molar mass, not a printed value.

Assays:
[1] = tested on: macrophage J774 cells line; test: Cytotoxicity assay (MTT) in macrophage J774 cells; assay type: cell-based; details: J774 cells, 24 hrs, MTT
Method: The study was carried out using macrophage J774 cells line (ATCC-USA). Cells were grown in Rosewell Park Memorial Institute Medium (RPMI) containing 10% fetal calf serum (FCS) and supplemented with 75 mg/liter penicillin, 100 mg/liter streptomycin, 110 mg/liter Sodium pyruvate, 2.38 gm/liter HEPES, 0.05 mM 2 β-mercaptoethanol, and 2 gm/liter NaHCO3, in a humidified atmosphere in 5% CO2 at 37° C., and were sub-cultured at 1:4 ratio once a week.
Cells were plated at a density of 3×10^4 cells/cm^2 and maintained in culture medium for 12 hours. Cells were seeded onto 96-well flat bottom plates and FCS was reduced to 5% for the experiment. Stock solutions of compounds IA1 to IIC10 were prepared fresh to avoid oxidation. Cells were incubated with the compounds (40 μg/ml) for 24 hrs.
After the completion of incubation, the medium was removed and cell viability was evaluated by assaying for the ability of functional mitochondria to catalyze the reduction of 3-(4,5-dimethylthiazol-2-yl)-2,5-diphenyltetrazolium bromide (MTT) to form formazan salt by mitochondrial dehydrogenases, and determined by Elisa reader at 450 nm (Multiskan Spectrum; Thermo Electron Corporation, USA). Percentage cytotoxicity was calculated with respect to the untreated cells.

[2] = tested on: M. tuberculosis H37Rv (ATCC 27294); test: MIC by broth dilution method, M. tuberculosis H37Rv; assay type: cell-based; details: Mycobacterium tuberculosis, 504 h, broth dilution, 3 weeks; read-out: MIC M. tb H37Rv

SMILES	Cytotoxicity [1] [µg/mL]	MIC [2] [µg/mL]
C[C@]1(COc2ccc(-c3cc(-c4cccc(F)c4)on3)cc2)Cn2cc([N+](=O)[O-])nc2O1 [IC8, (R)-2-{4-[5-(3-fluorophenyl)isoxazol-3-yl]phenoxymethyl}-2,3-dihydro-2-methyl-6-nitroimidazo[2,1-b]oxazole]	>40	2 (≈ 4.58 µM)
C[C@]1(COc2ccc(-c3cc(-c4ccccn4)on3)cc2)Cn2cc([N+](=O)[O-])nc2O1 [IC9, (R)-2-{4-[5-(pyridin-2-yl)isoxazol-3-yl]phenoxymethyl}-2,3-dihydro-2-methyl-6-nitroimidazo[2,1-b]oxazole]	>40	2 (≈ 4.77 µM)
CCc1ccc(OCc2cc(-c3ccc(OC[C@@]4(C)Cn5cc([N+](=O)[O-])nc5O4)cc3)no2)cc1 [IC19, (R)-2-{4-[5-(4-ethylphenoxymethyl)isoxazol-3-yl]phenoxymethyl}-2,3-dihydro-2-methyl-6-nitroimidazo[2,1-b]oxazole]	>40	2 (≈ 4.2 µM)
CCC(C)c1ccc(OCc2cc(-c3ccc(OC[C@@]4(C)Cn5cc([N+](=O)[O-])nc5O4)cc3)no2)cc1 (stereo partly drawn) [IC20, (R)-2-{4-[5-(4-sec-butylphenoxymethyl)isoxazol-3-yl]phenoxymethyl}-2,3-dihydro-2-methyl-6-nitroimidazo[2,1-b]oxazole]	>40	2 (≈ 3.96 µM)
C[C@]1(COc2ccc(-c3cc(COc4ccccc4)on3)cc2)Cn2cc([N+](=O)[O-])nc2O1 [IC21, (R)-2-{4-[5-(phenoxymethyl)isoxazol-3-yl]phenoxymethyl}-2,3-dihydro-2-methyl-6-nitroimidazo[2,1-b]oxazole]	>40	4 (≈ 8.92 µM)
COc1ccc(NC(=S)Nc2ccc(OC[C@@]3(C)Cn4cc([N+](=O)[O-])nc4O3)cc2)cc1 [IIA7, (R)-1-(4-methoxyphenyl)-3-{4-(2-methyl-6-nitro-2,3-dihydroimidazo[2,1-b]oxazol-2-yl)methoxyphenyl}thiourea]	>40	2 (≈ 4.39 µM)
C[C@]1(COc2ccc(NC(=S)Nc3ccc(OC(F)(F)F)cc3)cc2)Cn2cc([N+](=O)[O-])nc2O1 [IIA8, (R)-1-(4-trifluoromethoxyphenyl)-3-{4-(2-methyl-6-nitro-2,3-dihydroimidazo[2,1-b]oxazol-2-yl)methoxyphenyl}thiourea]	>40	2 (≈ 3.93 µM)
C[C@]1(COc2ccc(NC(=S)Nc3ccc(F)cc3)cc2)Cn2cc([N+](=O)[O-])nc2O1 [IIA9, (R)-1-(4-fluorophenyl)-3-{4-(2-methyl-6-nitro-2,3-dihydroimidazo[2,1-b]oxazol-2-yl)methoxyphenyl}thiourea]	>40	4 (≈ 9.02 µM)
C[C@]1(COc2ccc(NC(=S)Nc3ccc(C(F)(F)F)cc3)cc2)Cn2cc([N+](=O)[O-])nc2O1 [IIA10, (R)-1-(4-trifluoromethylphenyl)-3-{4-(2-methyl-6-nitro-2,3-dihydroimidazo[2,1-b]oxazol-2-yl)methoxyphenyl}thiourea]	>40	4 (≈ 8.11 µM)
Cc1ccc(NS(=O)(=O)c2ccc(OC[C@@]3(C)Cn4cc([N+](=O)[O-])nc4O3)cc2)cc1 [IIB1, (R)-4-{(2-methyl-6-nitro-2,3-dihydroimidazo[2,1-b]oxazol-2-yl)methoxy}-N-(p-tolyl)benzenesulfonamide]	>40	2 (≈ 4.5 µM)
C[C@]1(COc2ccc(S(=O)(=O)Nc3ccc(OC(F)(F)F)cc3)cc2)Cn2cc([N+](=O)[O-])nc2O1 [IIB2, (R)-4-{(2-methyl-6-nitro-2,3-dihydroimidazo[2,1-b]oxazol-2-yl)methoxy}-N-(4 trifluoromethoxyphenyl)benzenesulfonamide]	>40	2 (≈ 3.89 µM)
C[C@]1(COc2ccc(S(=O)(=O)Nc3ccc(C(F)(F)F)cc3)cc2)Cn2cc([N+](=O)[O-])nc2O1 [IIB3, (R)-4-{(2-methyl-6-nitro-2,3-dihydroimidazo[2,1-b]oxazol-2-yl)methoxy}-N-(4 trifluoromethylphenyl)benzenesulfonamide]	>40	2 (≈ 4.01 µM)
